Experimental data from paper PMC2990605 (British Journal of Cancer, 2010).

Experiments:
[1] = system: intracellular aminopeptidases; conditions: cited from earlier work
[2] = in vivo
[3] = parameters: method as in Talmadge et al, 1986; Ichinose et al, 2003; conditions: ref Talmadge et al, 1986; Ichinose et al, 2003; cited from earlier work

overall exposure versus dose [2]	SMILES	inhibition of intracellular aminopeptidases [1]	immunostimulatory activity [3]
increased in a dose proportional manner	CC(C)C[C@@H](C(=O)N[C@H](C(=O)O)c1ccccc1)[C@H](O)C(=O)NO [CHR-79888]	potent inhibitor	
	CC(C)C[C@H](NC(=O)[C@@H](O)[C@H](N)Cc1ccccc1)C(=O)O [bestatin]		immunostimulatory activity has been described
